# Tests used:
# [1] = system: Hs-578T; test: Cytotoxicity against human Hs 578T cells incubated for 48 hrs by sulforhodamine B assay; assay type: functional
# [2] = system: RPMI-8226; test: Cytotoxicity against human RPMI8226 cells incubated for 48 hrs by sulforhodamine B assay; assay type: functional; settings: RPMI-8226, 48 h
# [3] = system: OVCAR-3; test: Cytotoxicity against human OVCAR3 cells incubated for 48 hrs by sulforhodamine B assay; assay type: functional; settings: OVCAR-3, 48 h
# [4] = system: SR; test: Cytotoxicity against human SR cells incubated for 48 hrs by sulforhodamine B assay; assay type: functional
# [5] = system: SF-268; test: Cytotoxicity against human SF268 cells incubated for 48 hrs by sulforhodamine B assay; assay type: functional; settings: SF-268, 48 h
# [6] = system: SK-MEL-2; test: Cytotoxicity against human SK-MEL-2 cells incubated for 48 hrs by sulforhodamine B assay; assay type: functional; settings: SK-MEL-2, 48 h
# [7] = system: M14; test: Cytotoxicity against human M14 cells incubated for 48 hrs by sulforhodamine B assay; assay type: functional; settings: M14, 48 h
# [8] = system: SK-MEL-5; test: Cytotoxicity against human SK-MEL-5 cells incubated for 48 hrs by sulforhodamine B assay; assay type: functional; settings: SK-MEL-5, 48 h
# [9] = system: HCT-116; test: Cytotoxicity against human HCT116 cells incubated for 48 hrs by sulforhodamine B assay; assay type: functional; settings: HCT-116, 48 h
# [10] = system: MDA-MB-468; test: Cytotoxicity against human MDA-MB-468 cells incubated for 48 hrs by sulforhodamine B assay; assay type: functional; settings: MDA-MB-468, 48 h
# [11] = biological target: Serine/threonine-protein kinase B-raf (Mus musculus, UniProt P28028, V600E); test: Inhibition of mouse full length GST-tagged BRAF V600E mutant using recombinant human His6-tagged MEK1 as substrate preincubated for 1 hr followed by substrate addition measured after 25 mins by ELISA
# Sequence of Serine/threonine-protein kinase B-raf (P28028 whole entry, looked up, stated change not applied): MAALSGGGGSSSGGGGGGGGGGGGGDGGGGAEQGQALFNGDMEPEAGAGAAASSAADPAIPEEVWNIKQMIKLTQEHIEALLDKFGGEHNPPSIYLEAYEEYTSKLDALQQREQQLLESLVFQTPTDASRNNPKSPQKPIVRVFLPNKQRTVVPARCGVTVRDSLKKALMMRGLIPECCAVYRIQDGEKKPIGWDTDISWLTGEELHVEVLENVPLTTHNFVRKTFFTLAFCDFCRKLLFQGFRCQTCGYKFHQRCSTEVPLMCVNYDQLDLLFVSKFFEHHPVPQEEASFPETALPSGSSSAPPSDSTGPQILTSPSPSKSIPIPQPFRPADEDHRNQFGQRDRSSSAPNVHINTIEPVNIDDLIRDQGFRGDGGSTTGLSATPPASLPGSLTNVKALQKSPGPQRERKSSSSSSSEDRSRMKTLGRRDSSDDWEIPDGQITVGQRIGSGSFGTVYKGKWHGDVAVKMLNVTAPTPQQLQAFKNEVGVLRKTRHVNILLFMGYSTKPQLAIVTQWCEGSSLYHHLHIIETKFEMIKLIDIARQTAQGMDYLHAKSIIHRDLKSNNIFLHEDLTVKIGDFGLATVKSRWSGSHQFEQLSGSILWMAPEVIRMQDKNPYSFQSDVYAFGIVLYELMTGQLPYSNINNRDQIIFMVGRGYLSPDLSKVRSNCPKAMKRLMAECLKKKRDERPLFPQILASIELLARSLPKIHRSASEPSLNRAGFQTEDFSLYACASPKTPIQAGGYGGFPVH
# [12] = system: SNB-75; test: Cytotoxicity against human SNB75 cells incubated for 48 hrs by sulforhodamine B assay; assay type: functional; settings: SNB-75, 48 h
# [13] = system: 786-0; test: Cytotoxicity against human 786-0 cells incubated for 48 hrs by sulforhodamine B assay; assay type: functional; settings: 786-0, 48 h
# [14] = system: RXF 393; test: Cytotoxicity against human RXF393 cells incubated for 48 hrs by sulforhodamine B assay; assay type: functional; settings: RXF 393, 48 h
# [15] = system: Malme-3M; test: Cytotoxicity against human MALME-3M cells incubated for 48 hrs by sulforhodamine B assay; assay type: functional
# [16] = system: A549; test: Cell cycle arrest in human A549 cells assessed as accumulation at S phase at 1.4 uM after 24 hrs by propidium iodide staining based flow cytometry (reference value: 27.9%); assay type: functional
# [17] = system: OVCAR-8; test: Cytotoxicity against human OVCAR8 cells incubated for 48 hrs by sulforhodamine B assay; assay type: functional; settings: OVCAR-8, 48 h
# [18] = system: TK-10; test: Cytotoxicity against human TK10 cells incubated for 48 hrs by sulforhodamine B assay; assay type: functional; settings: TK-10, 48 h
# [19] = system: SNB-19; test: Cytotoxicity against human SNB19 cells incubated for 48 hrs by sulforhodamine B assay; assay type: functional; settings: SNB-19, 48 h
# [20] = system: UACC-257; test: Cytotoxicity against human UACC257 cells incubated for 48 hrs by sulforhodamine B assay; assay type: functional; settings: UACC-257, 48 h
# [21] = system: MDA-MB-231; test: Cytotoxicity against human MDA-MB-231 cells incubated for 48 hrs by sulforhodamine B assay; assay type: functional; settings: MDA-MB-231, 48 h
# [22] = system: SN12C; test: Cytotoxicity against human SN12C cells incubated for 48 hrs by sulforhodamine B assay; assay type: functional
# [23] = system: EKVX; test: Cytotoxicity against human EKVX cells incubated for 48 hrs by sulforhodamine B assay; assay type: functional
# [24] = system: HL-60(TB); test: Cytotoxicity against human HL-60(TB) cells incubated for 48 hrs by sulforhodamine B assay; assay type: functional; settings: HL-60, 48 h
# [25] = system: HT-29; test: Cytotoxicity against human HT-29 cells incubated for 48 hrs by sulforhodamine B assay; assay type: functional; settings: HT-29, 48 h
# [26] = system: CCRF-CEM; test: Cytotoxicity against human CCRF-CEM cells incubated for 48 hrs by sulforhodamine B assay; assay type: functional
# [27] = system: NCI-H522; test: Cytotoxicity against human NCI-H522 cells incubated for 48 hrs by sulforhodamine B assay; assay type: functional; settings: NCI-H522, 48 h
# [28] = read-out: LC50 (the source's name)
structure (smiles),measurement,setting,value
COc1ccc(-c2nc3sc(-c4ccc(Cl)cc4)cn3n2)cc1,GI50,[1],2.31 µM
same,TGI,[1],> 50 µM
same,CC50,[1]; [28],> 50 µM
same,GI50,[2],3.67 µM
same,TGI,[2],> 50 µM
same,CC50,[2]; [28],> 50 µM
same,GI50,[3],1.72 µM
same,TGI,[3],7.2 µM
same,CC50,[3]; [28],> 50 µM
same,GI50,[4],4.53 µM
same,TGI,[4],26.1 µM
same,CC50,[4]; [28],> 50 µM
same,GI50,[5],48 µM
same,TGI,[5],> 50 µM
same,CC50,[5]; [28],> 50 µM
same,GI50,[6],> 50 µM
same,TGI,[6],> 50 µM
same,CC50,[6]; [28],> 50 µM
same,GI50,[7],> 50 µM
same,TGI,[7],> 50 µM
same,CC50,[7]; [28],> 50 µM
same,GI50,[8],14 µM
same,TGI,[8],> 50 µM
same,CC50,[8]; [28],> 50 µM
same,GI50,[9],1.21 µM
same,TGI,[9],3.48 µM
same,CC50,[9]; [28],> 50 µM
same,GI50,[10],2.08 µM
same,TGI,[10],> 50 µM
same,CC50,[10]; [28],> 50 µM
same,IC50,[11],4.7 µM
same,GI50,[12],1.61 µM
same,TGI,[12],6.85 µM
same,CC50,[12]; [28],23.3 µM
same,GI50,[13],1.06 µM
same,TGI,[13],2.41 µM
same,CC50,[13]; [28],6.7 µM
same,GI50,[14],5.99 µM
same,TGI,[14],39.7 µM
same,CC50,[14]; [28],> 50 µM
same,GI50,[15],2.71 µM
same,TGI,[15],> 50 µM
same,CC50,[15]; [28],> 50 µM
same,Activity,[16],17.34%
same,GI50,[17],2.6 µM
same,TGI,[17],> 50 µM
same,CC50,[17]; [28],> 50 µM
same,GI50,[18],2.01 µM
same,TGI,[18],5.62 µM
same,CC50,[18]; [28],34.8 µM
same,GI50,[19],2.47 µM
same,TGI,[19],> 50 µM
same,CC50,[19]; [28],> 50 µM
same,GI50,[20],> 50 µM
same,TGI,[20],> 50 µM
same,CC50,[20]; [28],> 50 µM
same,GI50,[21],2.06 µM
same,TGI,[21],16.7 µM
same,CC50,[21]; [28],> 50 µM
same,GI50,[22],1.84 µM
same,TGI,[22],> 50 µM
same,CC50,[22]; [28],> 50 µM
same,GI50,[23],4.82 µM
same,TGI,[23],> 50 µM
same,CC50,[23]; [28],> 50 µM
same,GI50,[24],> 50 µM
same,TGI,[24],> 50 µM
same,CC50,[24]; [28],> 50 µM
same,GI50,[25],2.96 µM
same,TGI,[25],> 50 µM
same,CC50,[25]; [28],> 50 µM
same,GI50,[26],> 50 µM
same,TGI,[26],> 50 µM
same,CC50,[26]; [28],> 50 µM
same,GI50,[27],14.9 µM
same,TGI,[27],> 50 µM
same,CC50,[27]; [28],> 50 µM

# From ChEMBL document CHEMBL4270577, “Synthesis, anticancer activity and molecular modeling studies of 1,2,4-triazole derivatives as EGFR inhibitors” (Eur J Med Chem, 2018)
